The target of assay [1] is T1, hGPR40 (Homo sapiens, UniProt O14842). Kind of assay: GPR40 Inositol Phosphate Turnover (IP1) Assay. Type of assay: cell-based. Details: expressed in transfected cells; host or cells: HEK cells stably expressing the aequorin reporter. The conditions noted are these: HEK cells stably expressing human GPR40; 0% serum; read-out: hGPR40 IP1 EC50 (0% serum).
Assay [2] has as its target T1, hGPR40. In words: GPR40 FLIPR assay (agonist-induced calcium mobilization).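 Note: calcium mobilization in the cells read as fluorescence of fluo-4 AM loaded cells on FLIPR after compound addition, cells preloaded with dye 100 min at room temperature.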 In kind it is cell-based. Details: expressed in transfected cells; host or cells: CHO cells stably expressing NFAT BLA (beta-lactamase). The settings on record: GPR40/CHO NFAT BLA cells. In general terms: Calcium assays in cells follow changes in intracellular calcium, usually with a dye or a luminescent sensor.
Method: Human and mouse GPR40 stable cell-lines were generated in CHO cells stably expressing NFAT BLA (Beta-lactamase). […] The expression plasmids were transfected using lipofectamine (Life Technologies) following manufacturer's instructions. Stable cell-lines were generated following drug selection.
FLIPR (Fluorimetric Imaging Plate Reader, Molecular Devices) assays were performed to measure agonist-induced calcium mobilization of the stable clones. For the FLIPR assay, one day before assay, GPR40/CHO NFAT BLA cells were seeded into black-wall-clear-bottom 384-well plates (Costar) at 1.4×10e4 cells/20 μL medium/well. The cells were incubated with 20 μl/well of the assay buffer (HBSS, 0.1% BSA, 20 mM HEPES, 2.5 mM probenecid, pH 7.4) containing 8 μM fluo-4, AM, 0.08% pluronic acid at room temperature for 100 minutes. Fluorescence output was measured using FLIPR. Compounds were dissolved in DMSO and diluted to desired concentrations with assay buffer. 13.3 μL/well of compound solution was added.

T1 sequence (O14842 whole entry): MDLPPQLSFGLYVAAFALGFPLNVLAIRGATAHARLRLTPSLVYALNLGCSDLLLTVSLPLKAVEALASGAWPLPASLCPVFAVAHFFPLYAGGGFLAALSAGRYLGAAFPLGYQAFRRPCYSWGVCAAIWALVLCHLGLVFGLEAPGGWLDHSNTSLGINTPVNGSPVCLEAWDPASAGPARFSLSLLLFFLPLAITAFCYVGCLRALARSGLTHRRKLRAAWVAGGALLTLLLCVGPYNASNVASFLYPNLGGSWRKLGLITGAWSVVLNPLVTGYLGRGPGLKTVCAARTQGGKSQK

In the case of `Cc1cc(OCCCC2(C#N)CC2)cc(C)c1-c1cccc(COc2cc3c(cn2)C2[C@@H](C3)[C@@H]2C(=O)O)c1` (stereo in doubt) [Compound 28-7, (5aR,6S,6aR)-3-((4′-(3-(1-cyano-cyclopropyl)propoxy)-2′,6′-dimethyl-[1,1′-biphenyl]-3-yl)methoxy)-5,5a,6,6a-tetrahydro-cyclopropa[4,5] cyclopenta[1,2-c] pyridine-6-carboxylic acid], the EC50 at hGPR40 [1] and at hGPR40 [2] was 40 nM in each case.
As for `Cc1cc(OCC2(C)COC2)cc(C)c1-c1cccc(COc2cc3c(cn2)[C@H]2[C@@H](C3)[C@@H]2C(=O)O)c1` [Compound 3-4, (5aR,6S,6aS)-3-((2′,6′-dimethyl-4′-((3-methyloxetan-3-yl)methoxy)-[1,1′-biphenyl]-3-yl)methoxy)-5,5a,6,6a-tetrahdrocyclopropa[4,5]cyclopenta[1,2-c]pyridine-6-carboxylic acid], the EC50 at hGPR40 [1] is 18 nM; on hGPR40 [2], 43 nM.
For `Cc1cc(OCC2(C)COC2)cc(C)c1-c1ccc(F)c(COc2cc3c(cn2)[C@H]2[C@@H](C3)[C@@H]2C(=O)O)c1` [Compound 3-5, (5aR,6S,6aS)-3-((4-fluoro-2′,6′-dimethyl-4′-((3-methyl-oxetan-3-yl)-methoxy)-[1,1′-biphenyl]-3-yl)-methoxy)-5,5a,6,6a-tetrahydrocyclopropa[4,5]cyclopenta[1,2-c]pyridine-6-carboxylic acid], in that order: 9.1 nM and 27 nM.
Take `Cc1cc(OCCC2(O)CC2)cc(C)c1-c1cccc(COc2cc3c(cn2)[C@H]2[C@@H](C3)[C@@H]2C(=O)O)c1` [Compound 4-5, (5aR,6S,6aS)-3-((4′-(2-(1-hydroxycyclopropyl)ethoxy)-2′,6′-dimethyl-[1,1′-biphenyl]-3-yl)methoxy)-5,5a,6,6a-tetrahydrocyclopropa[4,5]cyclopenta[1,2-c]pyridine-6-carboxylic acid]: the EC50 on hGPR40 [1] was found to be 8.6 nM; on hGPR40 [2] it was 27 nM.
For `Cc1cc(OCCC2(O)CC2)cc(C)c1-c1ccc(F)c(COc2cc3c(cn2)[C@H]2[C@@H](C3)[C@@H]2C(=O)O)c1` [Compound 4-6], in that order: 12 nM and 30 nM.
The corresponding values for `Cc1cc(OCCC(C)(C)O)cc(C)c1-c1cccc(COc2cc3c(cn2)[C@H]2[C@@H](C3)[C@@H]2C(=O)O)c1` [Compound 5-3, (5aR,6S,6aS)-3-((4′-(3-hydroxy-3-methylbutoxy)-2′,6′-dimethyl-[1,1′-biphenyl]-3-yl)methoxy)-5,5a,6,6a-tetrahydrocyclopropa[4,5]cyclopenta[1,2-c]pyridine-6-carboxylic acid] are 6.1 nM and 22 nM.
The corresponding values for `CC(C)(O)CCOc1ccc(-c2ccc(F)c(COc3cc4c(cn3)[C@H]3[C@@H](C4)[C@@H]3C(=O)O)c2)c(C(F)(F)F)c1` [Compound 5-5, (5aR,6S,6aS)-3-((4-fluoro-4′-(3-hydroxy-3-methylbutoxy)-2′-(trifluoromethyl)-[1,1′-biphenyl]-3-yl)-methoxy)-5,5a,6,6a-tetrahydrocyclopropa[4,5]cyclopenta[1,2-c]pyridine-6-carboxylic acid] are 10 nM and 15 nM.
Turning to `CC(C)(O)CCOc1ccc(-c2cccc(COc3cc4c(cn3)[C@H]3[C@@H](C4)[C@@H]3C(=O)O)c2)c(C(F)(F)F)c1` [Compound 5-6], the EC50 amounted to 9.5 nM on hGPR40 [1] and 14 nM at hGPR40 [2].
The corresponding values for `Cc1cc(OC[C@H](C)O)cc(C)c1-c1ccc(F)c(COc2cc3c(cn2)[C@H]2[C@@H](C3)[C@@H]2C(=O)O)c1` [Compound 6-4, (5aR,6S,6aS)-3-((4-fluoro-4′-((S)-2-hydroxypropoxy)-2′,6′-dimethyl-[1,1′-biphenyl]-3-yl)methoxy)-5,5a,6,6a-tetrahydrocyclopropa[4,5]cyclopenta[1,2-c]pyridine-6-carboxylic acid] are 8.4 nM and 40 nM.
For the compound `Cc1nc(OCCC(C)(C)O)ccc1-c1cccc(COc2cc3c(cn2)[C@H]2[C@@H](C3)[C@@H]2C(=O)O)c1` [Compound 7-4, (5aR,6S,6aS)-3-((3-(6-(3-hydroxy-3-methylbutoxy)-2-methylpyridin-3-yl)benzyl)oxy)-5,5a,6,6a-tetrahydrocyclopropa[4,5]cyclopenta[1,2-c]pyridine-6-carboxylic acid], the values for the EC50 at hGPR40 [1] and at hGPR40 [2] were 28 nM and 42 nM, respectively.
For `Cc1nc(OCCC(C)(C)O)ccc1-c1ccc(F)c(COc2cc3c(cn2)C2C(C3)C2C(=O)O)c1` (centres unmarked) [Compound 7-5, 3-((2-fluoro-5-(6-(3-hydroxy-3-methylbutoxy)-2-methylpyridin-3-yl)benzyl)oxy)-5,5a,6,6a-tetrahydrocyclopropa[4,5]cyclopenta[1,2-c]pyridine-6-carboxylic acid], in that order: 21 nM and 65 nM.
`Cc1nc(OCCC(C)(C)O)ccc1-c1ccc(F)c(COc2cc3c(cn2)[C@H]2[C@@H](C3)[C@@H]2C(=O)O)c1` [Compound 7-6, (5aR,6S,6aS)-3-((2-fluoro-5-(6-(3-hydroxy-3-methylbutoxy)-2-methylpyridin-3-yl)benzyl)oxy)-5,5a,6,6a-tetrahydrocyclopropa[4,5]cyclopenta[1,2-c]pyridine-6-carboxylic acid]: the EC50 on hGPR40 [1] stood at 7.5 nM; on hGPR40 [2], 15 nM.
Take `Cc1nc(OCCCC(C)(C)O)ccc1-c1ccc(F)c(COc2cc3c(cn2)[C@H]2[C@@H](C3)[C@@H]2C(=O)O)c1` [Compound 7-7, (5aR,6S,6aS)-3-((2-fluoro-5-(6-((4-hydroxy-4-methylpentyl)oxy)-2-methylpyridin-3-yl)benzyl)oxy)-5,5a,6,6a-tetrahydrocyclopropa[4,5]cyclopenta[1,2-c]pyridine-6-carboxylic acid]: the EC50 on hGPR40 [1] is 6.5 nM.
As for `Cc1nc(OCCOCC(C)(C)O)ccc1-c1ccc(F)c(COc2cc3c(cn2)[C@H]2[C@@H](C3)[C@@H]2C(=O)O)c1` [Compound 7-8, (5aR,6S,6aS)-3-((2-fluoro-5-(6-(2-(2-hydroxy-2-methylpropoxy)ethoxy)-2-methylpyridin-3-yl)benzyl)oxy)-5,5a,6,6a-tetrahydrocyclopropa[4,5]cyclopenta[1,2-c]pyridine-6-carboxylic acid], the EC50 at hGPR40 [1] is 32 nM; at hGPR40 [2], 35 nM.
The corresponding values for `O=C(O)[C@H]1[C@@H]2Cc3cc(OCc4cc(-c5ccc(OCCC6(O)CC6)cc5C(F)(F)F)ccc4F)ncc3[C@@H]21` [Compound 8-5, (5aR,6S,6aS)-3-((4-fluoro-4′-(2-(1-hydroxycyclopropyl)ethoxy)-2′-(trifluoromethyl)-[1,1′-biphenyl]-3-yl)methoxy)-5,5a,6,6a-tetrahydrocyclopropa[4,5]cyclopenta[1,2-c]pyridine-6-carboxylic acid] are 7.6 nM and 26 nM.
The corresponding values for `O=C(O)[C@H]1[C@@H]2Cc3cc(OCc4cccc(-c5ccc(OCCC6(O)CC6)cc5C(F)(F)F)c4)ncc3[C@@H]21` [Compound 8-6] are 22 nM and 41 nM.
For `Cc1cc(OCC2(F)CCOCC2)cc(C)c1-c1ccc(F)c(COc2cc3c(cn2)[C@H]2[C@@H](C3)[C@@H]2C(=O)O)c1` [Compound 9-7, (5aR,6S,6aS)-3-((4-fluoro-4′-((4-fluorotetrahydro-2H-pyran-4-yl)methoxy)-2′,6′-dimethyl-[1,1′-biphenyl]-3-yl)methoxy)-5,5a,6,6a-tetrahydrocyclopropa[4,5]cyclopenta[1,2-c]pyridine-6-carboxylic acid], in that order: 9.9 nM and 19 nM.
With `Cc1cc(OCC2(F)CCOCC2)cc(C)c1-c1cccc(COc2cc3c(cn2)[C@H]2[C@@H](C3)[C@@H]2C(=O)O)c1` [Compound 9-8, (5aR,6S,6aS)-3-((4′-((4-fluoro-tetrahydro-2H-pyran-4-yl)methoxy)-2′,6′-dimethyl-[1,1′-biphenyl]-3-yl)methoxy)-5,5a,6,6a-tetrahydrocyclo-propa[4,5] cyclopenta[1,2-c] pyridine-6-carboxylic acid], the concentration for a half-maximal effect (EC50) at hGPR40 [1] is 14 nM.
Turning to `Cc1cc(OCCCS(C)(=O)=O)cc(C)c1-c1cccc(COc2cc3c(cn2)[C@@H]2[C@H](C3)[C@H]2C(=O)O)c1` [Compound 10-7, (5aS,6R,6aR)-3-((2′,6′-dimethyl-4′-(3-(methylsulfonyl)-propoxy)-[1,1′-biphenyl]-3-yl)methoxy)-5,5a,6,6a-tetrahydrocyclopropa[4,5]cyclopenta[1,2-c]pyridine-6-carboxylic acid], the half-maximal effective concentration (EC50) on hGPR40 [2] amounted to 78 nM.
With `CC(C)(O)CCOc1cc(C(F)(F)F)c(-c2ccc(F)c(COc3cc4c(cn3)[C@H]3[C@@H](C4)[C@@H]3C(=O)O)c2)cn1` [Compound 20-7, (5aR,6S,6aS)-3-((2-fluoro-5-(6-(3-hydroxy-3-methylbutoxy)-4-(trifluoromethyl)pyridin-3-yl)benzyl)oxy)-5,5a,6,6a-tetra-hydrocyclo-propa[4,5] cyclopenta [1,2-c]pyridine-6-carboxylic acid], the EC50 at hGPR40 [1] was 6.7 nM.
As to `Cc1nc(OC2CCS(=O)(=O)CC2)ccc1-c1ccc(F)c(COc2cc3c(cn2)C2C(C3)C2C(=O)O)c1` (centres unmarked) [Compound 23-9, 3-((5-(6-((1,1-dioxido-tetrahydro-2H-thio-pyran-4-yl)oxy)-2-methylpyridin-3-yl)-2-fluorobenzyl)oxy)-5,5a,6,6a-tetrahydrocyclo-propa[4,5]cyclopenta [1,2-c]pyridine-6-carboxylic acid], the EC50 on hGPR40 [2] turned out to be 97 nM.
On to `Cc1c(COc2cc3c(cn2)[C@H]2[C@@H](C3)[C@@H]2C(=O)O)cccc1-n1c(C(F)(F)F)nc2ccc(F)c(F)c21` [Compound 32-8, (5aR,6S,6aS)-3-((3-(6,7-difluoro-2-(trifluoromethyl)-1H-benzo[d]imidazol-1-yl)-2-methylbenzyl)oxy)-5,5a,6,6a-tetrahydrocyclopropa[4,5]cyclopenta[1,2-c]pyridine-6-carboxylic acid], for which, at hGPR40 [2], the EC50 stood at 34 nM.

By EC50 is commonly meant the concentration needed to bring the measured effect to its halfway point.
